{
  "source": "patent US20210283219A1",
  "about": "“INHIBITION OF ALTERNATIVE COMPLEMENT PATHWAY FOR TREATMENT OF RETINAL ISCHEMIC INJURY AND GLAUCOMA” (Massachusetts Eye and Ear Infirmary, priority 2017, published 2021)",
  "origin": "cited, not measured here",
  "target": "complement factor B (Homo sapiens, UniProt P00751)",
  "sequence (P00751 26-764, species assumed)": "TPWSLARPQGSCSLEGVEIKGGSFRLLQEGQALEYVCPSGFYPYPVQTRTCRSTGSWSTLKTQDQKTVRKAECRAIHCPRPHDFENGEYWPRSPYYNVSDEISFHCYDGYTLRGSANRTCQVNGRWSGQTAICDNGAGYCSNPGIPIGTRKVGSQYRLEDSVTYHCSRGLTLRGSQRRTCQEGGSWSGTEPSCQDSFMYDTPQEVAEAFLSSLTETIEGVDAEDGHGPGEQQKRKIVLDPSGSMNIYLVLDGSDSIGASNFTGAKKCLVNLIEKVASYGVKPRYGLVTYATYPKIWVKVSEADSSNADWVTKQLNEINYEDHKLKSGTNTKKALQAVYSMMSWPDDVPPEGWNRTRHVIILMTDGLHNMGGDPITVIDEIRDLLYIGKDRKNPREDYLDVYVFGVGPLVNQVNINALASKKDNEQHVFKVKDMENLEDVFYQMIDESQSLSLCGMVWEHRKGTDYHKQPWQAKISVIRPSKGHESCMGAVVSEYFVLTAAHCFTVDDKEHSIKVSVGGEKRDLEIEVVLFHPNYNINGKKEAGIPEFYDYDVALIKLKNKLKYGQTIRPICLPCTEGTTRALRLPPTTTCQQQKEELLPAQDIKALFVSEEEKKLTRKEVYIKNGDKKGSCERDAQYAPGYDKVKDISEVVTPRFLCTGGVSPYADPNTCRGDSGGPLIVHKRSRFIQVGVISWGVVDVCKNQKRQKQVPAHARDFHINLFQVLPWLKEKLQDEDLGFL",
  "data": [
    {"substance": "(2S)-2-[[(2S)-2 [[(2S)-2-[[(2S)-[[(2S)-2-[[(2S)-2-acetamido-5-(diaminomethylideneamino)pentanoyl]amino]-4-methylpentanoyl]amino]-4,4-dimethylpentanoyl]amino]-4-methylpentanoyl]amino]propanoyl]amino]-5-(diaminomethylideneamino)pentanoic acid [Compound 51]", "values": [
      {"measurement": "inhibition of complement factor B", "result": "potently inhibits"}
    ]}
  ]
}
